Key:
[1] = target: T1, Neuropeptide Y receptor type 1 (Homo sapiens, UniProt P25929)
T1 sequence (P25929 whole entry): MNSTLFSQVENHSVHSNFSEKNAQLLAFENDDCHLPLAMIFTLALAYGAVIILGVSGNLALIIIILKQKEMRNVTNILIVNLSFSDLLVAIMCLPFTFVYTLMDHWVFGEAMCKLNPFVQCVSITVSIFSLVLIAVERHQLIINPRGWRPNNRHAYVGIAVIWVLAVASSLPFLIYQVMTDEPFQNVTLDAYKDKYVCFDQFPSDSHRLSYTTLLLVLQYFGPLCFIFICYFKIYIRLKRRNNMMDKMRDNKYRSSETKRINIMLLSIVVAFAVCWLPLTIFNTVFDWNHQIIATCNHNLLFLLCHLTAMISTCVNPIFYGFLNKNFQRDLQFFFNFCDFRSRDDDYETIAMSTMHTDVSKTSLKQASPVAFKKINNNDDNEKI

[2] = target: T2, Prostaglandin G/H synthase 1 (Rattus norvegicus, UniProt Q63921); format: functional
T2 sequence (Q63921 whole entry): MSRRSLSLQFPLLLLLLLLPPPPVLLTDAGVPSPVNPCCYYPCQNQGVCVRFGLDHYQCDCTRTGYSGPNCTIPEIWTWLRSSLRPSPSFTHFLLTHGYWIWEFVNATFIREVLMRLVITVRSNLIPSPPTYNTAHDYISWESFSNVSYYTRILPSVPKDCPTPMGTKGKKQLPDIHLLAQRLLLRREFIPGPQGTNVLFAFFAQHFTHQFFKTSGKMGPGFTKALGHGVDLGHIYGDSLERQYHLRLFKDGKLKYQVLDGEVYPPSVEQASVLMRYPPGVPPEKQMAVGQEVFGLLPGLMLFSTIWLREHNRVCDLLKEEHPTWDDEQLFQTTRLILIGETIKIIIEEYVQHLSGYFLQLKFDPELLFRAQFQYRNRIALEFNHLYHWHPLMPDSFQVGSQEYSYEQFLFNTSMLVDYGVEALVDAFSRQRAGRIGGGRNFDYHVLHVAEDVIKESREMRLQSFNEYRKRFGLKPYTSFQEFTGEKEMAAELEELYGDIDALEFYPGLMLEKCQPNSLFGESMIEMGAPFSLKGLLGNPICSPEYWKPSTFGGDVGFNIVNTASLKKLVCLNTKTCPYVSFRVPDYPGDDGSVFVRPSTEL

[3] = target: T3, Muscarinic acetylcholine receptor M2 (Homo sapiens, UniProt P08172); format: functional, cell-based
T3 sequence (P08172 whole entry): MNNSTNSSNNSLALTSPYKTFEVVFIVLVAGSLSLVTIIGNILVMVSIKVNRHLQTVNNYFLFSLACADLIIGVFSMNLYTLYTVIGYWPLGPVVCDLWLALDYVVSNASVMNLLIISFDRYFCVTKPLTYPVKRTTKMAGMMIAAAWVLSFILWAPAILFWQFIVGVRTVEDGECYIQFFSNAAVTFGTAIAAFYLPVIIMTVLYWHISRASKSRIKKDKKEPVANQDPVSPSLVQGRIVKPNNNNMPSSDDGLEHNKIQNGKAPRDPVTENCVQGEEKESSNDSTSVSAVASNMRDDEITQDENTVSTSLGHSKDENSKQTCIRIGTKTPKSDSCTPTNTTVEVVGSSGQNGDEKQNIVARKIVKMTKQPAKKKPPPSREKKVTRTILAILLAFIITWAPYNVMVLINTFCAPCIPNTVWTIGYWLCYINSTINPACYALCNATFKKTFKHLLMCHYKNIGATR

[4] = target: T4, 5-hydroxytryptamine receptor 3A (Homo sapiens, UniProt P46098); format: functional
T4 sequence (P46098 whole entry): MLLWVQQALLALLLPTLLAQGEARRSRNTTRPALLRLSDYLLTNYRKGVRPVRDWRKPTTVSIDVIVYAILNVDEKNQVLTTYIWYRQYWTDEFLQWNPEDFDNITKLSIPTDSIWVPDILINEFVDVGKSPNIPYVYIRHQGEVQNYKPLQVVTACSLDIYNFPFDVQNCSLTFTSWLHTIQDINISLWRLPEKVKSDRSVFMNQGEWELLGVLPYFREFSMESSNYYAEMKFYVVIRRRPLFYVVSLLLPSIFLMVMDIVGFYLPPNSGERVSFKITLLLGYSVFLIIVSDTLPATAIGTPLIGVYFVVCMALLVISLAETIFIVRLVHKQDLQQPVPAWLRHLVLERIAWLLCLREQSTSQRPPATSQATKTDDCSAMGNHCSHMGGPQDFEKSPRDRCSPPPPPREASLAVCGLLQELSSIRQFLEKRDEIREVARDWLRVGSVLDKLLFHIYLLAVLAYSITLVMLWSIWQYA

[5] = target: T5, 5-hydroxytryptamine receptor 2C (Homo sapiens, UniProt P28335)
T5 sequence (P28335 whole entry): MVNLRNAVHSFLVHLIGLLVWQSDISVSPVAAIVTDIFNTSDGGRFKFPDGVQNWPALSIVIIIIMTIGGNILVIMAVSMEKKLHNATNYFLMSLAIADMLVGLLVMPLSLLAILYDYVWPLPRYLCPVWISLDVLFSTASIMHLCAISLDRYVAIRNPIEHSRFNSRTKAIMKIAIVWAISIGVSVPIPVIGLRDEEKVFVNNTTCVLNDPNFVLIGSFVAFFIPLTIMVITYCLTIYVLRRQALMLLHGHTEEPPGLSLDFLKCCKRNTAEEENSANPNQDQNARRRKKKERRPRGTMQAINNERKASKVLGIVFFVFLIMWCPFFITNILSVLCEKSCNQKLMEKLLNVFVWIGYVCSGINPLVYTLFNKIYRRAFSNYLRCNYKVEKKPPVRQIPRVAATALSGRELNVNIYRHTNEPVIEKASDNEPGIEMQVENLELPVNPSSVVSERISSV
Also: assay procedure not described here.

Row | SMILES | AC50 [1] | AC50 [2] | AC50 [3] | AC50 [4] | AC50 [5]
1 | COc1cc(N)c(Cl)cc1C(=O)NC1CCN(CCCOc2ccc(F)cc2)CC1OC (centres undefined) [CISAPRIDE] | > 30 µM | > 30 µM | > 10 µM | > 30 µM | –
2 | CC(CN(C)C)C(C)(O)Cc1ccc(Cl)cc1 (centres undefined) [CLOBUTINOL] | > 30 µM | > 30 µM | > 10 µM | > 30 µM | > 30 µM
3 | CCOC(=O)C(C)(C)Oc1ccc(Cl)cc1 [CLOFIBRATE] | > 30 µM | > 30 µM | > 10 µM | > 30 µM | > 30 µM
4 | C[C@@H]1C[C@H]2[C@@H]3CCC4=CC(=O)C=C[C@]4(C)[C@@]3(F)[C@@H](O)C[C@]2(C)[C@@]1(O)C(=O)CO [DEXAMETHASONE] | > 30 µM | > 30 µM | > 10 µM | > 30 µM | > 30 µM
5 | CC(C)[C@@H](C)/C=C/[C@@H](C)[C@H]1CC[C@H]2/C(=C/C=C3\C[C@@H](O)CC[C@@H]3C)CCC[C@]12C [DIHYDROTACHYSTEROL] | > 10 µM | > 10 µM | > 10 µM | > 30 µM | > 30 µM
6 | Oc1ccc(CCNCCCCCCNCCc2ccccc2)cc1O [DOPEXAMINE] | > 30 µM | > 30 µM | > 30 µM | > 30 µM | > 30 µM
7 | CCN1CC(CCN2CCOCC2)C(c2ccccc2)(c2ccccc2)C1=O (centres undefined) [DOXAPRAM] | > 30 µM | > 30 µM | > 30 µM | > 30 µM | 0.071 µM
8 | CCCCOc1ccc(C(=O)CCN2CCCCC2)cc1 [DYCLONINE] | > 30 µM | > 30 µM | > 10 µM | > 10 µM | > 10 µM
9 | CC(C)NC[C@H](O)COc1ccc(CC(N)=O)cc1 [ESATENOLOL] | > 30 µM | > 30 µM | – | > 10 µM | > 10 µM
10 | CCc1cc2c(s1)-n1c(C)nnc1CN=C2c1ccccc1Cl [ETIZOLAM] | > 30 µM | > 30 µM | > 30 µM | > 30 µM | > 30 µM
11 | CCOC(=O)c1ncn2c1CN(C)C(=O)c1cc(F)ccc1-2 [FLUMAZENIL] | > 30 µM | > 30 µM | > 30 µM | > 30 µM | > 30 µM
12 | CO[C@H]1C[C@H](O[C@H]2CC[C@@]3(C)[C@H](CC[C@@H]4[C@@H]3CC[C@]3(C)[C@@H](C5=CC(=O)OC5)[C@@H](OC(C)=O)C[C@]43O)C2)O[C@@H](C)[C@@H]1O [OLEANDRIN] | – | – | > 30 µM | > 30 µM | > 30 µM
13 | Fc1ccc([C@@H]2CCNC[C@H]2COc2ccc3c(c2)OCO3)cc1 [PAROXETINE] | > 30 µM | > 30 µM | – | > 10 µM | > 30 µM
14 | c1ccc(C2(N3CCCCC3)CCCCC2)cc1 [PHENCYCLIDINE] | > 30 µM | > 30 µM | > 30 µM | > 30 µM | –
15 | COc1cc(C(=O)OCc2cccc(COC(=O)c3cc(OC)c(OC)c(OC)c3)n2)cc(OC)c1OC [PIROZADIL] | > 30 µM | > 30 µM | > 30 µM | > 30 µM | –
16 | CCCCCCCC(=O)CC[C@@H]1[C@@H](C/C=C\CCCC(=O)OC(C)C)[C@@H](O)C[C@H]1O [UNOPROSTONE ISOPROPYL] | – | > 30 µM | – | – | –
